Laboratory results taken from US6706664B1, “Benzoxazole compounds, process for the preparation thereof and herbicides” (UBE Industries, Ltd., priority 1999, dated 2004).

Tests used:
Parameters in all cases: key: 0: normal development; 1: Less damaged; 2: Slightly damaged; 3: Moderately damaged; 4: Severely damaged; 5: All killed
[1] = test system: young rice plant; experiment: Herbicidal test for paddy field; type: in vivo; conditions: paddy field pot, 500 g/ha dropwise at 1.5 leaf stage of barnyardgrass, 3 weeks, rank vs non-treated
Protocol: (§1) Wagner pots, each having an area of 1/5000 are, were packed with Ube soil (alluvial soil) and planted with seeds or tubers of young rice plant, barnyardgrass, bulrush, flat sedge and monochoria. Then, the pots were filled with water to a depth of 3 cm.
(§2) Each wettable powder of the desired compounds (I) shown in Table 1 prepared in accordance with Example 2 was diluted with water containing a surfactant (0.05%) and subjected to dropwise addition treatment by using pipet so that an effective concentration of the compound (I) in each herbicide became 500 g/ha at 1.5 leaf stage of barnyardgrass.
(§3) These plants were controlled in a glass house at an average temperature of 25° C. for 3 weeks, and then herbicidal effects thereof were investigated.
(§4) The herbicidal effects are evaluated according to the following 6 ranks as compared with non-treated district.
(§5) (0: normal development, 1: Less damaged, 2: Slightly damaged, 3: Moderately damaged, 4: Severely damaged, 5: All killed).

[2] = test system: livid amaranth; experiment: Soil treatment test for upland field; type: in vivo, Amaranthus lividus; conditions: 500 g/ha, glass house 25° C., 3 weeks
Excerpt: as §5
(§6) Wagner pots, each having an area of 1/5000 are, were packed with Ube soil (alluvial soil), and then each seed of corn, soybean, cotton, wheat, solgum, sugar beat, Large crabgrass, barnyardgrass, green foxtail, blackgrass, annual bluegrass, common lambsquartes, livid amaranth and velvetleaf were planted and covered with soil.
(§7) Each wettable powder of the desired compounds (I) shown in Table 1 prepared in accordance with Example 2 was diluted with water containing a surfactant (0.05%) and uniformly sprayed on the surface of each soil so that an effective concentration of the compound (I) in each herbicide became 500 g/ha. These plants were controlled in a glass house at an average temperature of 25° C. for 3 weeks, and then herbicidal effects thereof were investigated.
(§8) The herbicidal effects were evaluated according to the evaluation method described in the above (1).

[3] = test system: common lambsquartes; experiment: Soil treatment test for upland field; type: in vivo, Chenopodium album; conditions: 500 g/ha, glass house 25° C., 3 weeks
Excerpt: as §5, §6, §7, §8

[4] = test system: green foxtail; experiment: Soil treatment test for upland field; type: in vivo, Setaria viridis; conditions: 500 g/ha, glass house 25° C., 3 weeks
Excerpt: as §5, §6, §7, §8

[5] = test system: blackgrass; experiment: Soil treatment test for upland field; type: in vivo, Alopecurus aegualis; conditions: 500 g/ha, glass house 25° C., 3 weeks
Excerpt: as §5, §6, §7, §8

[6] = test system: corn; experiment: Soil treatment test for upland field; type: in vivo; conditions: 500 g/ha, glass house 25° C., 3 weeks
Excerpt: as §5, §6, §7, §8

[7] = test system: soybean; experiment: Soil treatment test for upland field; type: in vivo; conditions: 500 g/ha, glass house 25° C., 3 weeks
Excerpt: as §5, §6, §7, §8

[8] = test system: solgum; experiment: Soil treatment test for upland field; type: in vivo; conditions: 500 g/ha, glass house 25° C., 3 weeks
Excerpt: as §5, §6, §7, §8

[9] = test system: cotton; experiment: Soil treatment test for upland field; type: in vivo; conditions: 500 g/ha, glass house 25° C., 3 weeks
Excerpt: as §5, §6, §7, §8

[10] = test system: sugar beat; experiment: Soil treatment test for upland field; type: in vivo; conditions: 500 g/ha, glass house 25° C., 3 weeks
Excerpt: as §5, §6, §7, §8

[11] = test system: wheat; experiment: Soil treatment test for upland field; type: in vivo; conditions: 500 g/ha, glass house 25° C., 3 weeks
Excerpt: as §5, §6, §7, §8

[12] = test system: velvetleaf; experiment: Soil treatment test for upland field; type: in vivo, Abutilon theophrasti; conditions: 500 g/ha, glass house 25° C., 3 weeks
Excerpt: as §5, §6, §7, §8

[13] = test system: monochoria; experiment: Herbicidal test for paddy field; type: in vivo, Monochoria vaginalis; conditions: paddy field pot, 500 g/ha dropwise at 1.5 leaf stage of barnyardgrass, 3 weeks, rank vs non-treated
Protocol: as §1, §2, §3, §4, §5

[14] = test system: annual bluegrass; experiment: Soil treatment test for upland field; type: in vivo, Poa annua; conditions: 500 g/ha, glass house 25° C., 3 weeks
Excerpt: as §5, §6, §7, §8

[15] = test system: bulrush; experiment: Herbicidal test for paddy field; type: in vivo, Scrips juncoides; conditions: paddy field pot, 500 g/ha dropwise at 1.5 leaf stage of barnyardgrass, 3 weeks, rank vs non-treated
Protocol: as §1, §2, §3, §4, §5

[16] = test system: Large crabgrass; experiment: Soil treatment test for upland field; type: in vivo, Digitaria adscendens; conditions: 500 g/ha, glass house 25° C., 3 weeks
Excerpt: as §5, §6, §7, §8

[17] = test system: livid amaranth; experiment: Foliar spread test for upland field; type: in vivo, Amaranthus lividus; conditions: foliar spray 500 ppm, 3 weeks, rank vs non-treated
Excerpt: as §5
(§9) Wagner pots, each having an area of 1/5000 are, were packed with volcanic ash soil and then each seed of corn, soybean, cotton, wheat, solgum, sugar beat, Large crabgrass, barnyardgrass, green foxtail, blackgrass, annual bluegrass, common lambsquartes, livid amaranth, velvetleaf and morning glory was planted, covered with soil and grown in a glass house at an average temperature of […] for about 2 weeks.
(§10) Each wettable powder of the desired compounds (I) shown in Table 1 prepared in accordance with Example 2 was diluted to 500 ppm with water containing a surfactant (0.5%) and then uniformly sprayed on the above respective plants.
(§11) After these plants were controlled in a glass house at an average temperature of 25° C. for 3 weeks, the herbicidal effects thereof were investigated.
as §8

[18] = test system: corn; experiment: Foliar spread test for upland field; type: in vivo; conditions: foliar spray 500 ppm, 3 weeks, rank vs non-treated
Excerpt: as §5, §9, §10, §11, §8

[19] = test system: solgum; experiment: Foliar spread test for upland field; type: in vivo; conditions: foliar spray 500 ppm, 3 weeks, rank vs non-treated
Excerpt: as §5, §9, §10, §11, §8

[20] = test system: sugar beat; experiment: Foliar spread test for upland field; type: in vivo; conditions: foliar spray 500 ppm, 3 weeks, rank vs non-treated
Excerpt: as §5, §9, §10, §11, §8

[21] = test system: wheat; experiment: Foliar spread test for upland field; type: in vivo; conditions: foliar spray 500 ppm, 3 weeks, rank vs non-treated
Excerpt: as §5, §9, §10, §11, §8

[22] = test system: velvetleaf; experiment: Foliar spread test for upland field; type: in vivo, Abutilon theophrasti; conditions: foliar spray 500 ppm, 3 weeks, rank vs non-treated
Excerpt: as §5, §9, §10, §11, §8

[23] = test system: common lambsquartes; experiment: Foliar spread test for upland field; type: in vivo, Chenopodium album; conditions: foliar spray 500 ppm, 3 weeks, rank vs non-treated
Excerpt: as §5, §9, §10, §11, §8

[24] = test system: barnyardgrass; experiment: Soil treatment test for upland field; type: in vivo, Echinochloa crusgalli; conditions: 500 g/ha, glass house 25° C., 3 weeks
Excerpt: as §5, §6, §7, §8

[25] = test system: barnyardgrass; experiment: Herbicidal test for paddy field; type: in vivo, Echinochloa crusgalli; conditions: paddy field pot, 500 g/ha dropwise at 1.5 leaf stage of barnyardgrass, 3 weeks, rank vs non-treated
Protocol: as §1, §2, §3, §4, §5

SMILES	Effect Young rice plant [1]	Effects Livid amaranth [2]	Effects Common lambsquarters [3]	Effects Green foxtail [4]	Effects Corn [6]	Effects Soybean [7]	Effects Solgum [8]	Effects Cotton [9]	Effects Sugar beat [10]	Effects Wheat [11]	Effects Velvetleaf [12]	Effect Monochoria [13]	Effects Annual bluegrass [14]	Effects Large crabgrass [16]	Effects Livid amaranth [17]	Effects Corn [18]	Effects Solgum [19]	Effects Sugar beat [20]	Effects Wheat [21]	Effects Velvetleaf [22]	other results
CCCC(Oc1ccc(F)c(C(F)(F)F)c1)c1nc2cc(S(C)(=O)=O)ccc2o1 (stereo not shown) [Compound 217]	1	5	5	5	0	0	0	1	5	0	5	4	4	5	–	–	–	–	–	–	Effects Blackgrass [5]: 2; Effect Bulrush [15]: 2
CCCCC(Oc1ccc(F)c(C(F)(F)F)c1)c1nc2cc(Cl)ccc2o1 (stereo not shown) [Compound 476]	–	5	3	4	0	0	0	0	3	0	2	–	4	3	5	1	0	5	1	2	Effects Common lambsquarters [23]: 5
CCC(Oc1cccc(C(F)(F)F)c1)c1nc2cc(S(C)(=O)=O)c(C)cc2o1 (stereo not shown) [Compound 490]	–	–	–	–	–	–	–	–	–	–	–	–	–	–	4	1	1	4	1	4	Effects Common lambsquarters [23]: 5
CCCC(Oc1cccc(C(F)(F)F)c1)c1nc2cc(S(C)(=O)=O)c(C)cc2o1 (stereo not shown) [Compound 489]	–	5	4	4	1	0	0	0	5	0	3	–	5	2	5	1	1	5	1	3	Effects Common lambsquarters [23]: 5
CCC(Oc1ccc(Cl)c(C(F)(F)F)c1)c1nc2cc([N+](=O)[O-])ccc2o1 (stereo not shown) [Compound 432]	–	5	3	5	0	0	2	0	5	0	2	–	5	5	–	–	–	–	–	–	Effects Barnyardgrass [24]: 4; Effects Blackgrass [5]: 3
CCC(Oc1cccc(C#N)c1)c1nc2cc(Cl)ccc2o1 (stereo not shown) [Compound 353]	0	–	–	–	–	–	–	–	–	–	–	5	–	–	–	–	–	–	–	–	Effect Bulrush [15]: 4; Effect Barnyardgrass [25]: 3
CCCC(Oc1cccc(C#N)c1)c1nc2cc(F)c(Cl)cc2o1 (stereo not shown) [Compound 501]	1	–	–	–	–	–	–	–	–	–	–	3	–	–	–	–	–	–	–	–	Effect Barnyardgrass [25]: 3
